Source: US8664257B2, “Oxygen-substituted 3-heteroaroylamino-propionic acid derivatives and their use as pharmaceuticals” (Sanofi, priority 2010, dated 2014)

These molecules were tested against T1, Recombinant human cathepsin A (Homo sapiens, UniProt P10619) (assay: Cathepsin A inhibitory activity). Conditions: number printed in place of a class symbol; unit from footnote (2); read-out: Activity (2): Cathepsin A inhibitory activity, IC50 printed as a numeric bound.
T1 construct: Recombinant human cathepsin A (residues 29-480, with a C-terminal 10-His tag); 10-His (C); purchased R&D Systems 1049-SE
T1 sequence (P10619 29-312 limits assumed): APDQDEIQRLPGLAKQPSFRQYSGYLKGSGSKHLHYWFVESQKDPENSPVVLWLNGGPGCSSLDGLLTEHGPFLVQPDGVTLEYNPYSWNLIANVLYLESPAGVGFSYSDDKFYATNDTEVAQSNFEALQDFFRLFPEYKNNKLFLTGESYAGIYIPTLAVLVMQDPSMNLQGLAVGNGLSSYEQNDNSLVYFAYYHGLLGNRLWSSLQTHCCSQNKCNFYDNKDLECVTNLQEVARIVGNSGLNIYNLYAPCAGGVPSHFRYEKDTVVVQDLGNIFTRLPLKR
T1 sequence (P10619 327-480 limits assumed): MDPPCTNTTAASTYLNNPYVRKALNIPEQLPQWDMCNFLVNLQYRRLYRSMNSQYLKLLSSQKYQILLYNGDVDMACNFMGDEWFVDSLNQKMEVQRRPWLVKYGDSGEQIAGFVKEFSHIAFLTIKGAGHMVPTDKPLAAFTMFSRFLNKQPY
Assay type: biochemical
Method in brief: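 Human cathepsin A (res. 29-480, C-His10) pre-activated with cathepsin L (MES pH 6.0, DTT, 15 min, 37 °C; quenched with 10 μM E-64). Enzyme (833 ng/ml) preincubated 15 min RT with compound in MES pH 5.5/DTT, then 2 μM Bodipy FL-bradykinin for 15 min RT. Capillary electrophoresis product/substrate peak areas; IC50 from % inhibition.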

SMILES	IC50
CC(C)[C@@](C)(O)COc1cc(C(=O)N[C@@H](CC(=O)O)c2ccccc2Cl)nn1-c1ccccc1F [Example 861, (S)-3-(2-Chloro-phenyl)-3-{[1-(2-fluoro-phenyl)-5-((R)-2-hydroxy-2,3-dimethyl-butoxy)-1H-pyrazole-3-carbonyl]-amino}-propionic acid]	> 30 µM

Same assay, conditions: read-out: Activity (2): Cathepsin A inhibitory activity, IC50 class

SMILES	IC50
CC(C)C(C)(O)COc1cc(C(=O)N[C@H](CC(=O)O)Cc2ccc(C#N)cc2)nn1-c1ccccc1F (stereo partly drawn) [Example 836, (S)-4-(4-Cyano-phenyl)-3-{[1-(2-fluoro-phenyl)-5-(2-hydroxy-2,3-dimethyl-butoxy)-1H-pyrazole-3-carbonyl]-amino}-butyric acid]	1 to 30 µM
CC(C)[C@](C)(O)COc1cc(C(=O)N[C@H](CC(=O)O)Cc2ccccc2)nn1-c1ccccc1F [Example 837, (S)-3-{[1-(2-Fluoro-phenyl)-5-((S)-2-hydroxy-2,3-dimethyl-butoxy)-1H-pyrazole-3-carbonyl]-amino}-4-phenyl-butyric acid]	1 to 30 µM
CC(C)C(C)(O)COc1cc(C(=O)N[C@H](CC(=O)O)Cc2ccccc2)nn1-c1ccccc1F (stereo partly drawn) [Example 838, (S)-3-{[1-(2-Fluoro-phenyl)-5-(2-hydroxy-2,3-dimethyl-butoxy)-1H-pyrazole-3-carbonyl]-amino}-4-phenyl-butyric acid]	1 to 30 µM
CC(C)(C)C(=O)COc1cc(C(=O)N[C@@H](CC(=O)O)c2cccc(Cl)c2Cl)nn1-c1ccccc1F [Example 839, (S)-3-(2,3-Dichloro-phenyl)-3-{[5-(3,3-dimethyl-2-oxo-butoxy)-1-(2-fluoro-phenyl)-1H-pyrazole-3-carbonyl]-amino}-propionic acid]	< 0.1 µM
COc1ccc([C@H](CC(=O)O)NC(=O)c2cc(OC[C@@](C)(O)C(C)C)n(-c3ccccc3F)n2)cc1 [Example 840, (S)-3-{[1-(2-Fluoro-phenyl)-5-((S)-2-hydroxy-2,3-dimethyl-butoxy)-1H-pyrazole-3-carbonyl]-amino}-3-(4-methoxy-phenyl)-propionic acid]	1 to 30 µM
CC(C)C[C@@H](CC(=O)O)NC(=O)c1cc(OC[C@@](C)(O)C(C)C)n(-c2ccccc2F)n1 [Example 841, (S)-3-{[1-(2-Fluoro-phenyl)-5-((S)-2-hydroxy-2,3-dimethyl-butoxy)-1H-pyrazole-3-carbonyl]-amino}-5-methyl-hexanoic acid]	1 to 30 µM
CC(C)[C@](C)(O)COc1cc(C(=O)N[C@@H](CC(=O)O)c2ccc(Cl)cc2Cl)nn1-c1ccccc1F [Example 849, (S)-3-(2,4-Dichloro-phenyl)-3-{[1-(2-fluoro-phenyl)-5-((S)-2-hydroxy-2,3-dimethyl-butoxy)-1H-pyrazole-3-carbonyl]-amino}-propionic acid]	< 0.1 µM
COc1ccc([C@H](CC(=O)O)NC(=O)c2cc(OC[C@](C)(O)C(C)C)n(-c3ccccc3F)n2)cc1 [Example 850, (S)-3-{[1-(2-Fluoro-phenyl)-5-((R)-2-hydroxy-2,3-dimethyl-butoxy)-1H-pyrazole-3-carbonyl]-amino}-3-(4-methoxy-phenyl)-propionic acid]	< 0.1 µM
CC(C)(C)[C@@](C)(O)COc1cc(C(=O)N[C@@H](CC(=O)O)c2ccccc2F)nn1-c1ccccc1F [Example 854, (S)-3-(2-Fluoro-phenyl)-3-{[1-(2-fluoro-phenyl)-5-((R)-2-hydroxy-2,3,3-trimethyl-butoxy)-1H-pyrazole-3-carbonyl]-amino}-propionic acid]	0.1 to 1 µM
Cc1ccccc1[C@H](CC(=O)O)NC(=O)c1cc(OC[C@](C)(O)C(C)C)n(-c2ccccc2F)n1 [Example 857, (S)-3-{[1-(2-Fluoro-phenyl)-5-((R)-2-hydroxy-2,3-dimethyl-butoxy)-1H-pyrazole-3-carbonyl]-amino}-3-o-tolyl-propionic acid]	< 0.1 µM
Cc1ccc([C@H](CC(=O)O)NC(=O)c2cc(OC[C@](C)(O)C(C)C)n(-c3ccccc3F)n2)c(C)c1 [Example 859, (S)-3-(2,4-Dimethyl-phenyl)-3-{[1-(2-fluoro-phenyl)-5-((R)-2-hydroxy-2,3-dimethyl-butoxy)-1H-pyrazole-3-carbonyl]-amino}-propionic acid]	< 0.1 µM
Cc1ccc([C@H](CC(=O)O)NC(=O)c2cc(OC[C@](C)(O)C(C)C)n(-c3ccccc3F)n2)cc1 [Example 860, (S)-3-{[1-(2-Fluoro-phenyl)-5-((R)-2-hydroxy-2,3-dimethyl-butoxy)-1H-pyrazole-3-carbonyl]-amino}-3-p-tolyl-propionic acid]	< 0.1 µM
CC(C)[C@@](C)(O)COc1cc(C(=O)N[C@@H](CC(=O)O)c2ccccc2F)nn1-c1ccccc1F [Example 862, (S)-3-(2-Fluoro-phenyl)-3-{[1-(2-fluoro-phenyl)-5-((R)-2-hydroxy-2,3-dimethyl-butoxy)-1H-pyrazole-3-carbonyl]-amino}-propionic acid]	0.1 to 1 µM
Cc1ccccc1[C@H](CC(=O)O)NC(=O)c1cc(OC[C@@](C)(O)C(C)C)n(-c2ccccc2F)n1 [Example 870, (S)-3-{[1-(2-Fluoro-phenyl)-5-((S)-2-hydroxy-2,3-dimethyl-butoxy)-1H-pyrazole-3-carbonyl]-amino}-3-o-tolyl-propionic acid]	< 0.1 µM
CC(C)[C@](C)(O)COc1cc(C(=O)N[C@@H](CC(=O)O)c2ccc(F)cc2)nn1-c1ccccc1F [Example 872, (S)-3-(4-Fluoro-phenyl)-3-{[1-(2-fluoro-phenyl)-5-((S)-2-hydroxy-2,3-dimethyl-butoxy)-1H-pyrazole-3-carbonyl]-amino}-propionic acid]	0.1 to 1 µM
CC(C)[C@](C)(O)COc1cc(C(=O)N[C@@H](CC(=O)O)c2cccc(Cl)c2)nn1-c1ccccc1F [Example 877, (S)-3-(3-Chloro-phenyl)-3-{[1-(2-fluoro-phenyl)-5-((S)-2-hydroxy-2,3-dimethyl-butoxy)-1H-pyrazole-3-carbonyl]-amino}-propionic acid]	0.1 to 1 µM
CC(C)(C)[C@](C)(O)COc1cc(C(=O)N[C@@H](CC(=O)O)c2ccc(F)cc2)nn1-c1ccccc1F [Example 880, (S)-3-(4-Fluoro-phenyl)-3-{[1-(2-fluoro-phenyl)-5-((S)-2-hydroxy-2,3,3-trimethyl-butoxy)-1H-pyrazole-3-carbonyl]-amino}-propionic acid]	< 0.1 µM
CC(C)(C)[C@](C)(O)COc1cc(C(=O)N[C@@H](CC(=O)O)c2ccccc2F)nn1-c1ccccc1F [Example 883, (S)-3-(2-Fluoro-phenyl)-3-{[1-(2-fluoro-phenyl)-5-((S)-2-hydroxy-2,3,3-trimethyl-butoxy)-1H-pyrazole-3-carbonyl]-amino}-propionic acid]	< 0.1 µM
COc1cccc([C@H](CC(=O)O)NC(=O)c2cc(OC[C@@](C)(O)C(C)(C)C)n(-c3ccccc3F)n2)c1OC [Example 884, (S)-3-(2,3-Dimethoxy-phenyl)-3-{[1-(2-fluoro-phenyl)-5-((S)-2-hydroxy-2,3,3-trimethyl-butoxy)-1H-pyrazole-3-carbonyl]-amino}-propionic acid]	< 0.1 µM
Cc1ccccc1[C@H](CC(=O)O)NC(=O)c1cc(OCC(C)(O)c2ccccc2)n(-c2ccccc2F)n1 (stereo partly drawn) [Example 891, (S)-3-{[1-(2-Fluoro-phenyl)-5-(2-hydroxy-2-phenyl-propoxy)-1H-pyrazole-3-carbonyl]-amino}-3-o-tolyl-propionic acid]	< 0.1 µM

Same assay, conditions: recombinant human cathepsin A 833 ng/ml, Bodipy FL-labeled bradykinin 2 μM, pH 5.5; read-out: CATH-A IC50

SMILES	IC50
Cc1ccc([C@H](CC(=O)O)NC(=O)c2cc(OC[C@](C)(O)C(C)C)n(-c3ccccc3F)n2)cc1 [Example 860, (S)-3-{[1-(2-Fluoro-phenyl)-5-((R)-2-hydroxy-2,3-dimethyl-butoxy)-1H-pyrazole-3-carbonyl]-amino}-3-p-tolyl-propionic acid]	0.0761 µM
Cc1ccccc1[C@H](CC(=O)O)NC(=O)c1cc(OC[C@@](C)(O)C(C)C)n(-c2ccccc2F)n1 [Example 870, (S)-3-{[1-(2-Fluoro-phenyl)-5-((S)-2-hydroxy-2,3-dimethyl-butoxy)-1H-pyrazole-3-carbonyl]-amino}-3-o-tolyl-propionic acid]	0.076 µM

Same assay, conditions: recombinant human cathepsin A; read-out: Activity (2): Cathepsin A inhibitory activity, IC50 class

IC50	SMILES
1 to 30 µM	COc1cc(C(=O)N[C@@H](CC(=O)NCc2ccncc2)c2ccccc2C)nn1-c1ccccc1F [Example 916, 1-(2-Fluoro-phenyl)-5-methoxy-1H-pyrazole-3-carboxylic acid {(S)-2-[(pyridin-4-ylmethyl)-carbamoyl]-1-o-tolyl-ethyl}-amide]
1 to 30 µM	CCC(C)(C)NC(=O)C[C@H](NC(=O)c1cc(OC)n(-c2ccccc2F)n1)c1ccccc1C [Example 917, 1-(2-Fluoro-phenyl)-5-methoxy-1H-pyrazole-3-carboxylic acid [(S)-2-(1,1-dimethyl-propylcarbamoyl)-1-o-tolyl-ethyl]-amide]
1 to 30 µM	CC[C@@H](C)NC(=O)C[C@H](NC(=O)c1cc(OC)n(-c2ccccc2F)n1)c1ccccc1C [Example 918, 1-(2-Fluoro-phenyl)-5-methoxy-1H-pyrazole-3-carboxylic acid [(S)-2-((R)-sec-butylcarbamoyl)-1-o-tolyl-ethyl]-amide]
1 to 30 µM	COc1cc(C(=O)N[C@@H](CC(=O)NCC(C)C)c2ccccc2C)nn1-c1ccccc1F [Example 919, 1-(2-Fluoro-phenyl)-5-methoxy-1H-pyrazole-3-carboxylic acid ((S)-2-isobutylcarbamoyl-1-o-tolyl-ethyl)-amide]
1 to 30 µM	COc1cc(C(=O)N[C@@H](CC(=O)N[C@@H](C)C(C)(C)C)c2ccccc2C)nn1-c1ccccc1F [Example 920, 1-(2-Fluoro-phenyl)-5-methoxy-1H-pyrazole-3-carboxylic acid [(S)-1-o-tolyl-2-((S)-1,2,2-trimethyl-propylcarbamoyl)-ethyl]-amide]
